# PubChem BioAssay (NCI)
#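 How tested: cells in 96-well plates exposed to compound for 48 hours at five concentrations. TGI is the concentration that stops growth completely.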
# What was measured:
# Assay in all cases: NCI anticancer screen, dose series, 48 h
# HCT-15 colon = system: HCT-15 colon
# HOP-62 NSCLC = system: HOP-62 NSCLC
# HT29 colon = system: HT29 colon
# M14 melanoma = system: M14 melanoma
# MALME-3M melanoma = system: MALME-3M melanoma
# MDA-N = system: MDA-N
# NCI-H23 lung = system: NCI-H23 lung
# NCI-H460 lung = system: NCI-H460 lung
# RPMI-8226 leukemia = system: RPMI-8226 leukemia
# SF-539 CNS = system: SF-539 CNS
# HL-60(TB) leukemia = system: HL-60(TB) leukemia
Compound,TGI (HCT-15 colon) [µM],TGI (HOP-62 NSCLC) [µM],TGI (HT29 colon) [µM],TGI (M14 melanoma) [µM],TGI (MALME-3M melanoma) [µM],TGI (MDA-N) [µM],TGI (NCI-H23 lung) [µM],TGI (NCI-H460 lung) [µM],TGI (RPMI-8226 leukemia) [µM],TGI (SF-539 CNS) [µM],TGI (HL-60(TB) leukemia) [µM]
COC(=O)C12CCC(C(=O)OC)(Cc3c(c4ccccc4n3S(=O)(=O)c3ccccc3)C1)C2=O (stereo not drawn),> 100,> 100,> 81,> 100,> 100,> 100,> 100,> 100,> 100,> 67.3,
CSCCC(NC(=O)C(Cc1ccccc1)NC(=O)CNC(=O)CNC(=O)C(N)Cc1ccc(O)cc1)C(=O)O (stereo not drawn),> 100,> 100,> 100,,> 100,,> 100,> 100,,> 100,> 100
CC1=NN(c2nc(N)nc(CS(C)(=O)=O)n2)C(C)(C)C1,> 100,> 100,> 100,> 100,,,> 100,> 100,> 100,> 100,> 100
COC(=O)N1CC[C@@H]2CCC=C(c3cccc4c3OCO4)[C@@H]21,> 100,> 100,> 100,> 100,> 100,> 100,> 100,> 100,,> 100,> 100
Clc1cc2nc(C3CCCO3)[nH]c2cc1Cl (stereo not drawn),> 100,> 100,> 100,> 100,> 100,58,> 100,,> 100,> 100,> 100
O=C(N=Nc1ccc([N+](=O)[O-])cc1)NNc1ccc([N+](=O)[O-])cc1,62.8,34,61.8,31,53.1,32.3,44.7,47.2,58.2,,46.9
CSC1=N/C(=C\c2cccs2)C(=O)N1CN1CCOCC1,> 100,> 100,> 100,> 100,> 100,> 100,> 100,,> 100,,> 100
ON=C1CCCCC(=NO)CCCC1,> 100,,> 100,,> 100,> 100,> 100,> 100,> 100,> 100,
O=C(CC(=O)c1ccncc1)c1ccccc1,> 100,> 100,> 100,> 100,> 89.2,> 100,> 100,> 100,> 100,> 100,
COCCO,> 100,> 100,> 100,,> 100,,> 100,> 100,> 100,> 100,> 100
C=C1CC(OC(C)=O)/C=C(/C)CCC(C(C)(C)O)CC1O (stereo not drawn),> 100,> 100,> 100,> 100,> 100,> 100,> 100,> 100,,> 100,> 100
